These compounds were tested against T1, chimeric human RORγ-Gal4 receptor (Homo sapiens, UniProt P51449) (assay: transient transactivation assay (RORγ-Gal4 luciferase reporter)). Conditions: Cos-7 cells transfected with RORγ-Gal4 and 5Gal4 pGL3 TK Luc reporter; overnight incubation; T0901317 at 10^-5 M as reference; read-out: IC50.
T1 sequence (P51449 269-508 limits assumed): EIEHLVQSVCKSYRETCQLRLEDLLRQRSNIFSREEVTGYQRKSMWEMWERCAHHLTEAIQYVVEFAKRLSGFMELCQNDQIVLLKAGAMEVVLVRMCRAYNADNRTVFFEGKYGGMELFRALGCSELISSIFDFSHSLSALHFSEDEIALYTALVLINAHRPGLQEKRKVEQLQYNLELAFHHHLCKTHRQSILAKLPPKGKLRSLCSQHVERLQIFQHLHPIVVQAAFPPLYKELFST
Type: cell-based
Work on `Cc1cc(C(F)(F)F)cc2c1cc(Cc1c(Cl)ccc(C(=O)N3CCC(CC(=O)O)C3)c1Cl)n2C` (stereo not shown) [Example B-6] yielded an IC50 of under 100 nM. In the case of `Cc1cc(C(F)(F)F)cc2c1cc(Cc1c(Cl)ccc(C(=O)N3CC4(CC(C(=O)O)C4)C3)c1Cl)n2C` [Example B-18], the IC50 is reported as under 100 nM. Compound `Cc1cc(C#N)cc2c1cc(Cc1c(Cl)ccc(C(=O)N3CCC(C(C)(C)CO)CC3)c1Cl)n2C` [AA-8] has an IC50 of under 100 nM. `Cc1cn(C(=O)c2c(Cl)ccc(C(=O)N3CCC(CC(=O)O)CC3)c2Cl)c2c(C)cc(C(F)(F)F)cc12` [DJ, 2-(1-(2,4-dichloro-3-(3,7-dimethyl-5-(trifluoromethyl)-1H-indole-1-carbonyl)benzoyl)piperidin-4-yl)acetic acid] gave an IC50 of under 100 nM. `Cc1cn(C(=O)c2c(Cl)ccc(C(=O)N3CCC(CC(=O)O)CC3)c2Cl)c2c(C)nc(C(F)(F)F)cc12` [EV, 2-(1-(2,4-dichloro-3-(3,7-dimethyl-5-(trifluoromethyl)-1H-pyrrolo[2,3-c]pyridine-1-carbonyl)benzoyl)piperidin-4-yl)acetic acid] showed an IC50 of under 100 nM. `Cc1cn(C(=O)c2c(Cl)ncc(C(=O)N3CCC(CC(=O)O)CC3)c2Cl)c2c(C)cc(C(F)(F)F)cc12` [EQ, 2-(1-(4,6-dichloro-5-(3,7-dimethyl-5-(trifluoromethyl)-1H-indole-1-carbonyl)nicotinoyl)piperidin-4-yl)acetic acid] showed an IC50 of under 100 nM. `Cc1cc(C(F)(F)F)cc2c1cc(Cc1c(Cl)ccc(C(=O)N3CCC(CC(=O)O)CC3)c1Cl)n2C` [Example B-7] was tested, and the IC50 was under 100 nM. Compound `Cc1cc(C(F)(F)F)cc2c1cc(Cc1c(Cl)ccc(C(=O)N3CCC(OCC(=O)O)CC3)c1Cl)n2C` [Example B-2] has an IC50 of under 100 nM. `Cc1cc(C#N)cc2c1cc(Cc1c(Cl)cnc(C(=O)N3CCC(O)CC3)c1Cl)n2C` [BF-2] showed an IC50 of 100 to 500 nM. In the case of `COCCC1CCN(Cc2ccc(Cl)c(Cc3nc4c(C)cc(C(F)(F)F)cc4n3C)c2Cl)CC1` [Example BW, 2-[[2,6-dichloro-3-[[4-(2-methoxyethyl)-1-piperidyl]methyl]phenyl]methyl]-1,4-dimethyl-6-(trifluoromethyl)benzimidazole], the IC50 is reported as 100 to 500 nM. Compound `Cc1cc(C(F)(F)F)cc2c1cc(Cc1c(Cl)cnc(C(=O)N3CCC(CC(=O)O)CC3)c1Cl)n2C` [Example FH, 2-(1-(3,5-dichloro-4-((1,4-dimethyl-6-(trifluoromethyl)-1H-indol-2-yl)methyl)picolinoyl)piperidin-4-yl)acetic acid] has an IC50 of under 100 nM. `Cc1cc(C#N)cc2c1nc(Cc1c(Cl)ccc(C(=O)N3CCN(C4COC4)CC3)c1Cl)n2C` [BN-11] was tested, and the IC50 was 500 to 1000 nM. Work on `Cc1cc(C(F)(F)F)cn2c(C)c(Cc3c(Cl)ccc(C(=O)N4CCC(N(C)C)CC4)c3Cl)nc12` [CT-5] yielded an IC50 of 500 to 1000 nM. `COCCC1CCN(C(=O)c2ccc(Cl)c(Cc3nc4c(C)cc(C#N)cc4n3C)c2Cl)CC1` [BN-3] was tested, and the IC50 was 100 to 500 nM. `Cc1cc(C(F)(F)F)nn2c(C)c(Cc3c(Cl)ccc(C(=O)N4CCC(C5COC5)CC4)c3Cl)nc12` [CZ-2] showed an IC50 of under 100 nM. `Cn1c(Cc2c(Cl)ccc(C(=O)N3CCC(CC(=O)O)CC3)c2Cl)cc2c(F)cc(C(F)(F)F)cc21` [Example FE, 2-(1-(2,4-dichloro-3-((4-fluoro-1-methyl-6-(trifluoromethyl)-1H-indol-2-yl)methyl)benzoyl)piperidin-4-yl)acetic acid] was tested, and the IC50 was under 100 nM. `Cc1cc(C#N)cc2c1cc(Cc1c(Cl)ccc(C(=O)N3CCCC(O)C3)c1Cl)n2C` (stereo not shown) [AA-5] was tested, and the IC50 was 100 to 500 nM. `Cc1cc(C(F)(F)F)cc2c1nc(Cc1c(Cl)ccc(CN3CCC(C(C)(C)CO)CC3)c1Cl)n2C` [BW-6] was tested, and the IC50 was 100 to 500 nM. With `Cc1ccc(C(=O)N2CCOCC2)c(C)c1C(O)c1cc2c(C)cc(C(F)(F)F)cc2n1C` (stereo not shown) [K, (3-((1,4-dimethyl-6-(trifluoromethyl)-1H-indol-2-yl)(hydroxy)methyl)-2,4-dimethylphenyl)(morpholino)methanone] the IC50 was 100 to 500 nM. In the case of `Cc1cc(C(F)(F)F)cc2c1cc(C(=O)c1c(Cl)ccc(C(=O)N3CC[C@H](C(=O)O)[C@H](C)C3)c1Cl)n2C` (racemic) [AQ-3], the IC50 is reported as under 100 nM. For `Cc1cc(C#N)cc2c1nc(Cc1c(Cl)ccc(C(=O)N3CCC(N(C)C)CC3)c1Cl)n2C` [BN-14], the IC50 was 1000 to 10000 nM. For `Cc1cc(C#N)cc2c1nc(Cc1c(Cl)ccc(C(=O)N3CCC4(CCOC4)CC3)c1Cl)n2C` [BN-8], the IC50 was 100 to 500 nM. `Cc1cc(C#N)nc2c1cc(Cc1c(Cl)ccc(C(=O)N3CCC(O)CC3)c1Cl)n2C` [CL-1] showed an IC50 of under 100 nM. In the case of `Cc1cc(C(F)(F)F)nn2c(C)c(Cc3c(Cl)ccc(C(=O)N4CCN(S(C)(=O)=O)[C@H](C)C4)c3Cl)nc12` [CZ-3], the IC50 is reported as 100 to 500 nM. With `Cc1cc(C(F)(F)F)nc2c1cc(Cc1c(Cl)ncc(C(=O)N3CCC(S(C)(=O)=O)CC3)c1Cl)n2C` [Example GG, (4,6-dichloro-5-((1,4-dimethyl-6-(trifluoromethyl)-1H-pyrrolo[2,3-b]pyridin-2-yl)methyl)pyridin-3-yl)(4-(methylsulfonyl)piperidin-1-yl)methanone] the IC50 was under 100 nM. For `Cc1cc(C(F)(F)F)cc2c1nc(Cc1c(Cl)ccc(CN3CCC(N(C)C)CC3)c1Cl)n2C` [BW-16], the IC50 was 1000 to 10000 nM. `COCCC1CCN(C(=O)c2ccc(Cl)c(Cc3nc4c(C)cc(C(F)(F)F)cc4n3C)c2Cl)CC1` [BJ-18] showed an IC50 of under 100 nM. `Cc1cc(C(F)(F)F)cc2c1nc(Cc1c(Cl)ccc(CN3CCN(CC(F)(F)F)CC3)c1Cl)n2C` [BW-15] was tested, and the IC50 was 100 to 500 nM. `Cc1cc(C(F)(F)F)cc2c1cc(Cc1c(Cl)ccc(C(=O)N3CCC(CCC(=O)O)CC3)c1Cl)n2C` [Example B-24] was tested, and the IC50 was under 100 nM. For `Cc1cc(C(F)(F)F)cc2c1CC(Cc1c(Cl)ccc(C(=O)N3CCOCC3)c1Cl)N2C` (stereo not shown) [Example Q, (2,4-dichloro-3-((1,4-dimethyl-6-(trifluoromethyl)indolin-2-yl)methyl)phenyl)(morpholino)methanone], the IC50 was 100 to 500 nM. `Cc1cc(OC(F)(F)F)cc2c1c(Cc1c(Cl)ccc(C(=O)N3CCC(CC(=O)O)CC3)c1Cl)cn2C` [DU1-1] gave an IC50 of under 100 nM. Work on `Cc1c(C#N)ccc2c1cc(Cc1c(Cl)ccc(C(=O)N3CCOCC3)c1Cl)n2C` [EX, 2-(2,6-dichloro-3-(morpholine-4-carbonyl)benzyl)-1,4-dimethyl-1H-indole-5-carbonitrile] yielded an IC50 of under 100 nM. `Cc1cc(C#N)cc2c1cc(Cc1c(Cl)ccc(O[C@H]3CC[C@@H](C(=O)O)C3)c1Cl)n2C` (relative stereo) [Example AG1, cis-3-(2,4-dichloro-3-((6-cyano-1,4-dimethyl-1H-indol-2-yl)methyl)phenoxy)cyclopentanecarboxylic acid] showed an IC50 of 500 to 1000 nM. `Cn1c(Cc2c(Cl)ccc(C(=O)N3CCC(CC(=O)O)CC3)c2Cl)cc2ccc(OC(F)(F)F)cc21` [Example FI, 2-(1-(2,4-dichloro-3-((1-methyl-6-(trifluoromethoxy)-1H-indol-2-yl)methyl)benzoyl)piperidin-4-yl)acetic acid] was tested, and the IC50 was under 100 nM. Compound `Cc1ccc(C(=O)N2CCOCC2)c(C)c1Cc1cc2c(C)cc(C(F)(F)F)cc2n1C` [G, (3-((1,4-dimethyl-6-(trifluoromethyl)-1H-indol-2-yl)methyl)-2,4-dimethylphenyl)(morpholino)methanone] has an IC50 of under 100 nM. Work on `Cc1cc(C(F)(F)F)cc2c1c(Cc1c(Cl)ccc(C(=O)N3CC[C@H](C(=O)O)[C@H](C)C3)c1Cl)cn2C` [Example F1-2] yielded an IC50 of under 100 nM. Work on `Cc1cc(C(F)(F)F)nc2c1nc(Cc1c(Cl)ccc(C(=O)N3CCOCC3)c1Cl)n2C` [DC, (2,4-dichloro-3-((3,7-dimethyl-5-(trifluoromethyl)-3H-imidazo[4,5-b]pyridin-2-yl)methyl)phenyl)(morpholino)methanone] yielded an IC50 of 1000 to 10000 nM. With `Cc1cc(C(F)(F)F)cc2c1cc(Cc1c(Cl)ccc(C(=O)N3CCC(S(C)(=O)=O)CC3)c1Cl)n2C` [Example A1-11] the IC50 was under 100 nM. For `Cc1cc(C(F)(F)F)cc2c1cc(Cc1c(Cl)ccc(C(=O)N3CCC(CC(=O)O)C(C)C3)c1Cl)n2C` (stereo not shown) [Example B-21], the IC50 was under 100 nM. For `C[C@@H]1CN(C(=O)c2ccc(Cl)c(Cc3cc4c(F)cc(C(F)(F)F)cc4n3C)c2Cl)CC[C@@H]1C(=O)O` [FE-3], the IC50 was under 100 nM. `Cc1cc(C(F)(F)F)cc2c1cc(Cc1c(Cl)ccc(C(=O)N3CCCC(C(=O)O)C3)c1Cl)n2C` (stereo not shown) [Example B-11] was tested, and the IC50 was 100 to 500 nM. Compound `Cc1cc(C(F)(F)F)nc2c1cc(Cc1c(Cl)ncc(C(=O)N3CC[C@@H](CC(=O)O)[C@@H](C)C3)c1Cl)n2C` [Example GC, 2-((3R,4S)-1-(4,6-dichloro-5-((1,4-dimethyl-6-(trifluoromethyl)-1H-pyrrolo[2,3-b]pyridin-2-yl)methyl)nicotinoyl)-3-methylpiperidin-4-yl)acetic acid] has an IC50 of under 100 nM. `Cc1cc(C(F)(F)F)cc2c1cc(C(=O)c1c(Cl)ccc(C(=O)N3CC[C@H](C(=O)O)[C@H](C)C3)c1Cl)n2C` [AQ-4] showed an IC50 of under 100 nM. `Cc1cc(C(F)(F)F)cc2cnn(Cc3c(Cl)ccc(C(=O)N4CCC(CC(=O)O)CC4)c3Cl)c12` [EC, 2-(1-(2,4-dichloro-3-((7-methyl-5-(trifluoromethyl)-1H-indazol-1-yl)methyl)benzoyl)piperidin-4-yl)acetic acid] gave an IC50 of under 100 nM. `CCn1c(Cc2c(Cl)ccc(C(=O)N3CCOCC3)c2Cl)nc2c(C)cc(C#N)cc21` [CG, 2-(2,6-dichloro-3-(morpholine-4-carbonyl)benzyl)-1-ethyl-4-methyl-1H-benzo[d]imidazole-6-carbonitrile] gave an IC50 of 500 to 1000 nM. `Cc1cc(C(F)(F)F)cc2c1cc(Cc1c(Cl)ccc(C(=O)N3CCC(C(C)(C)C(=O)O)CC3)c1Cl)n2C` [Example B-23] gave an IC50 of under 100 nM. In the case of `COCCN1CCN(Cc2ccc(Cl)c(Cc3nc4c(C)cc(C(F)(F)F)cc4n3C)c2Cl)CC1` [BW-9], the IC50 is reported as 100 to 500 nM. `O=C(O)CC1CCN(C(=O)c2ccc(Cl)c(Cn3ccc4cc(C(F)(F)F)ccc43)c2Cl)CC1` [EI-4] showed an IC50 of under 100 nM. Compound `CC(=O)Nc1cc(C)c2cc(Cc3c(Cl)ccc(C(=O)N4CCOCC4)c3Cl)n(C)c2c1` [Example FK, N-(2-(2,6-dichloro-3-(morpholine-4-carbonyl)benzyl)-1,4-dimethyl-1H-indol-6-yl)acetamide] has an IC50 of under 100 nM.

From patent US10106501B2, “Nuclear receptor modulators” (AbbVie Inc., priority 2015, dated 2018)
